One data set deals with TNFα. To be noted: cited from earlier work.
Another data set has as its system Dogs. Particulars: cited from earlier work.
For another data set, the system named is Rodents. Particulars: cited from earlier work.
For data set [1], the system named is sepsis. Particulars: in vivo; cited from earlier work.
The test system of data set [2] is mice. Put plainly: LPS LD50 in mouse model. Format: in vivo. As to the method: In mouse model the LD50 of LPS depends on liver protein synthesis. […] However, in mice pretreated with β-galactosamine to inhibit liver protein synthesis, the mouse LD50 is approximately 5 nanograms (200 ng/kg), 30,000 times less. By comparison, normal humans show reactions at 2-4 nanograms of LPS per kilogram. The human LD50 for LPS is below 5 micrograms per kilogram, three orders of magnitude lower than mice. Humans are […] larger yet die at doses only double the dose that kills a 25-gram mouse. […] Human LPS sensitivity is believed to be due to mutations in sialic acid binding Ig-like lectins (siglecs). Phenotypically, knockouts of siglecs produce hyper-reactive immune system components. The missing siglec-13 and inactivated siglec-17 that are active in other primates affects control over TLR4. TLR4 is the receptor for LPS. It is also the target for HMGB1, in DAMP signaling.

Data set [3] has as its system mice. To be noted: cited from earlier work.
In the next data set the test system is humans. To be noted: cited from earlier work.
For data set [4], the system named is sepsis. To be noted: animal studies, as long as there is not an underlying infection; cited from earlier work.

This is an account of results in patent US20200325483A1, “SAFE DELIVERY OF CRISPR AND OTHER GENE THERAPIES TO LARGE FRACTIONS OF SOMATIC CELLS IN HUMANS AND ANIMALS” (priority 2016, published 2020).

Read-outs that look alike come from different tables or passages of the source. Ends that are not written are not given here. Bounds are passed on as bounds.

As to `COc1cc(CC(C)N)c(OC)cc1I` (stereo not shown) [DOI, 2,5-Dimethoxy-4-iodoamphetamine], in the data set on TNFα, the “TNFα inhibition (in words)” value is listed as “strongest TNFα inhibitor known”.
With Polymyxin B sulfate, the “dose at which animals begin dying” value with Dogs was 8 mg/kg. In addition, the tolerated dose in the data set on Rodents is not below 100 mg/kg.
For “ghrelin: Ghrelin, injected to rescue from sepsis (GSSFLSPEHQRVQQRKESKKPPAKLQPR; ends and bridges not checked; UniProt Q9UBU3 24-51, looked up)”, the “rescue from sepsis (in words)” value with sepsis [1] was “rescue from sepsis with remarkable effect”.
For lipopolysaccharide [LPS], in the data set with mice [2], the “fold lower LD50 in β-galactosamine pretreated vs normal mice” value was 30,000 times. Also, the “LPS LD50” value in the data set on mice [3] (mice pretreated with β-galactosamine to inhibit liver protein synthesis, per animal) was “approximately 5 nanograms”; in the data set with mice [3] (normal 25 gram mice, per animal), “approximately 150 micrograms”; in the data set with mice [3] (normal 25 gram mice) it was approximately 6 mg/kg; with humans (average adult human, per person) it was 300 micrograms; in the data set with humans (human) it was “below 5 micrograms per kilogram”. Also, in the data set on mice [3] (normal 25 gram mice), the “time for LD50 dose to complete its course” value is 35 h. In addition, the “LPS dose at which reactions are shown” value in the data set with humans (normal humans) was 2-4 nanograms of LPS per kilogram.

B1: IL-10: IL-10, injected to temper sepsis (protein, UniProt P22301 19-178, looked up)
Interleukin-10: SPGQGTQSENSCTHFPGNLPNMLRDLRDAFSRVKTFFQMKDQLDNLLLKESLLEDFKGYLGCQALSEMIQFYLEEVMPQAENQDPDIKAHVNSLGENLKTLRLRLRRCHRFLPCENKSKAVEQVKNAFNKLQEKGIYKAMSEFDIFINYIEAYMTMKIRN
As for B1, the “effect on sepsis (in words)” value in the data set on sepsis [4] was “effective in animal studies at tempering sepsis”.
